The source made the active and inactive calls. The rule behind the calls is not given here.
Tests used:
[1] = Kinetic solubility of the compound at pH 7.4; settings: buffer
[2] = Plasma protein binding in rat
[3] = Cmax in rat at 5 mg/kg, po; type: ADME, organism-based; set-up: dose 5 mg/kg, route oral; settings: in vivo
[4] = Tmax in rat at 5 mg/kg, po; type: ADME, organism-based; set-up: dose 5 mg/kg, route oral; settings: in vivo
[5] = AUC (0 to infinity) in rat at 1 mg/kg, iv; type: ADME, organism-based; set-up: time infinity, dose 1 mg/kg, route intravenous; settings: plasma
[6] = AUC (0 to infinity) in rat at 5 mg/kg, po; type: ADME, organism-based; set-up: time infinity, dose 5 mg/kg, route oral; settings: plasma
[7] = Half life in rat at 1 mg/kg, iv; type: ADME, organism-based; set-up: dose 1 mg/kg, route intravenous; settings: in vivo
[8] = Half life in rat at 5 mg/kg, po; type: ADME, organism-based; set-up: dose 5 mg/kg, route oral; settings: in vivo
[9] = Cmax in dog at 1 mg/kg, iv; type: ADME, organism-based, Canis lupus familiaris; set-up: dose 1 mg/kg, route intravenous; settings: in vivo
[10] = Cmax in dog at 5 mg/kg, po; type: ADME, organism-based, Canis lupus familiaris; set-up: dose 5 mg/kg, route oral; settings: in vivo
[11] = Tmax in dog at 5 mg/kg, po; type: ADME, organism-based, Canis lupus familiaris; set-up: dose 5 mg/kg, route oral; settings: in vivo
[12] = AUC (0 to infinity) in dog at 1 mg/kg, iv; type: ADME, organism-based, Canis lupus familiaris; set-up: time infinity, dose 1 mg/kg, route intravenous; settings: plasma
[13] = AUC (0 to infinity) in dog at 5 mg/kg, po; type: ADME, organism-based, Canis lupus familiaris; set-up: dose 5 mg/kg, route oral, time infinity; settings: plasma
[14] = Clearance in dog at 1 mg/kg, iv; type: ADME, organism-based, Canis lupus familiaris; set-up: dose 1 mg/kg, route intravenous; settings: in vivo
[15] = Volume of distribution at steady state in dog at 1 mg/kg, iv; type: ADME, organism-based, Canis lupus familiaris; set-up: dose 1 mg/kg, route intravenous; settings: in vivo, read-out: Vdss
[16] = Half life in dog at 1 mg/kg, iv; type: ADME, organism-based, Canis lupus familiaris; set-up: dose 1 mg/kg, route intravenous; settings: in vivo
[17] = Half life in dog at 5 mg/kg, po; type: ADME, organism-based, Canis lupus familiaris; set-up: dose 5 mg/kg, route oral; settings: in vivo
[18] = Oral bioavailability in dog at 1 mg/kg, iv and 5 mg/kg; type: ADME, organism-based, Canis lupus familiaris; settings: in vivo
[19] = Metabolic stability in rat liver microsomes assessed as compound remaining after 60 mins; type: ADME; settings: read-out: Stability
[20] = Metabolic stability in dog liver microsomes assessed as compound remaining after 60 mins; type: ADME, Canis lupus familiaris; settings: read-out: Stability
[21] = Metabolic stability in human liver microsomes assessed as compound remaining after 60 mins; type: ADME; settings: read-out: Stability
[22] = Half life in rat hepatocytes; type: ADME, cell-based, Hepatocyte
[23] = Half life in dog hepatocytes; type: ADME, cell-based, Canis lupus familiaris, Hepatocyte
[24] = Half life in human hepatocytes; type: ADME, cell-based, Hepatocyte
[25] = Permeability across apical to basolateral side in human Caco2 cells; type: ADME, cell-based; settings: caco-2
[26] = Thermodynamic solubility in aqueous buffer solution at pH 3; type: physicochemical
[27] = Thermodynamic solubility in aqueous buffer solution at pH 7.4; type: physicochemical
[28] = Plasma protein binding in dog; type: ADME, cell-free, Canis lupus familiaris; settings: read-out: PPB (converted)
[29] = Plasma protein binding in human; type: ADME, cell-free; settings: read-out: PPB (converted)
Cytochrome P450 1A2 = Cytochrome P450 1A2 (Homo sapiens, UniProt P05177); assay: Inhibition of CYP1A2 (unknown origin); type: ADME
Cytochrome P450 1A2, sequence (P05177 whole entry): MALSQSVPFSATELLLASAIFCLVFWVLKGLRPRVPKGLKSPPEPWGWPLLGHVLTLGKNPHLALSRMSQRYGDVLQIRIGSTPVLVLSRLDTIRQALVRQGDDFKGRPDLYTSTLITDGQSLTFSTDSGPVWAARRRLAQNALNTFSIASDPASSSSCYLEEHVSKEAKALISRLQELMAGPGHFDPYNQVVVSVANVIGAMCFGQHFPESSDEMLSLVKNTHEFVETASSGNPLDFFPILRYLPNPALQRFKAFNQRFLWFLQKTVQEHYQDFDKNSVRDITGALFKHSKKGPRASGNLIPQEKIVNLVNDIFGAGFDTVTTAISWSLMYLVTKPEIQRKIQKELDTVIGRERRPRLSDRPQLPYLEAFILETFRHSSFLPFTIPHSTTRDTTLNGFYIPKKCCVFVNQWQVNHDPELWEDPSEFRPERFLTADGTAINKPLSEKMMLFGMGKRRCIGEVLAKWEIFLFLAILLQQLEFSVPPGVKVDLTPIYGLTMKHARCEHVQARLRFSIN

Cytochrome P450 2C9 = Cytochrome P450 2C9 (Homo sapiens, UniProt P11712); assay: Inhibition of CYP2C9 (unknown origin); type: ADME
Cytochrome P450 2C9, sequence (P11712 whole entry): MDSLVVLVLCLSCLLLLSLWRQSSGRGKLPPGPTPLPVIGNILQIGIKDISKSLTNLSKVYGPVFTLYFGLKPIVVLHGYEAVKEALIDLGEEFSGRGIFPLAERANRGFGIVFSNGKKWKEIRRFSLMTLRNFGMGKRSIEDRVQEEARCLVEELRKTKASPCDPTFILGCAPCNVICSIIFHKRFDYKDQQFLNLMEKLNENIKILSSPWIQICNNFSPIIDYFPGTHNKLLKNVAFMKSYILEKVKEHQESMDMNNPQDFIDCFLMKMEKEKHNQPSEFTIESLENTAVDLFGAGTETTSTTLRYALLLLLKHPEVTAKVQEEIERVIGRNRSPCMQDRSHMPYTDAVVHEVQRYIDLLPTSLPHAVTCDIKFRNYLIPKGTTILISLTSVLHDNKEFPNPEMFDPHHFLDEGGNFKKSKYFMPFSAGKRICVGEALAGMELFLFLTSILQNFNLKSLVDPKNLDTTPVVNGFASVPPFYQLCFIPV

Cytochrome P450 2D6 = Cytochrome P450 2D6 (Homo sapiens, UniProt P10635); assay: Inhibition of CYP2D6 (unknown origin); type: ADME
Cytochrome P450 2D6, sequence (P10635 whole entry): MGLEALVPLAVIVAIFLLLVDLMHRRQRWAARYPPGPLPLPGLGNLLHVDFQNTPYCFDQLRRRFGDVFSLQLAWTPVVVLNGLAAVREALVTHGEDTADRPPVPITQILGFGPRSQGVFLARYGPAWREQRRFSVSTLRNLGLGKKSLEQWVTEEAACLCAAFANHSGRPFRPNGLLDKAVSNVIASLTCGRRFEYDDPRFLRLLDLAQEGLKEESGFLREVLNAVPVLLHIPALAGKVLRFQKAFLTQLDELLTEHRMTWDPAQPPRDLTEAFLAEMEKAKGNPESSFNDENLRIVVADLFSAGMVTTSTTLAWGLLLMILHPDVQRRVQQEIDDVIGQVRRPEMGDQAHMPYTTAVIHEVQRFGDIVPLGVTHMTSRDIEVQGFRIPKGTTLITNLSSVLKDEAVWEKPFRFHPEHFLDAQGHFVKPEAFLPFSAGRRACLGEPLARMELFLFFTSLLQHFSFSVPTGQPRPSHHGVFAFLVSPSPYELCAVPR

Cytochrome P450 2C19 = Cytochrome P450 2C19 (Homo sapiens, UniProt P33261); assay: Inhibition of CYP2C19 (unknown origin); type: ADME
Cytochrome P450 2C19, sequence (P33261 whole entry): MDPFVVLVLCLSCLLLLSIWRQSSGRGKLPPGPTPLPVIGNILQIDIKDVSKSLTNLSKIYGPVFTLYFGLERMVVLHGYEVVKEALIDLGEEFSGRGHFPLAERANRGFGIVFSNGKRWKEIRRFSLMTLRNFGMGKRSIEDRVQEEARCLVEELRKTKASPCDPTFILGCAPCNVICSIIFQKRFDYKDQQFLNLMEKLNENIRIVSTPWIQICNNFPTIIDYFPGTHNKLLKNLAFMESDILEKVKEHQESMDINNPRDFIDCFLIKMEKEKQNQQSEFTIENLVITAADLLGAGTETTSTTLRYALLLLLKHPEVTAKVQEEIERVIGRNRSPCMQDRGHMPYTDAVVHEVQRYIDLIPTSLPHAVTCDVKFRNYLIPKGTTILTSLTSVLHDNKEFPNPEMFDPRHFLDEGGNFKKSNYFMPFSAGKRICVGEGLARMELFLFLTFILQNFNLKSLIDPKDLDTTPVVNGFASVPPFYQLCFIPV

Rattus norvegicus [30] = assay: Antiinflammatory activity in po dosed rat collagen-induced arthritis model assessed as reduction in clinical score measured up to day 15; type: functional, organism-based
Rattus norvegicus [31] = assay: Antiinflammatory activity in rat collagen-induced arthritis model assessed as reduction in clinical score at 0.1 mg/kg, po measured up to day 15; type: functional, organism-based; set-up: dose 0.1 mg/kg
Rattus norvegicus [32] = assay: Antiinflammatory activity in rat collagen-induced arthritis model assessed as reduction in clinical score at 0.3 mg/kg, po measured up to day 15; type: functional, organism-based; set-up: dose 0.3 mg/kg
Jak1 protein = Jak1 protein (Rattus norvegicus, UniProt Q5FVF5); assay: Inhibition of rat JAK1
Jak1 protein, sequence (Q5FVF5 whole entry): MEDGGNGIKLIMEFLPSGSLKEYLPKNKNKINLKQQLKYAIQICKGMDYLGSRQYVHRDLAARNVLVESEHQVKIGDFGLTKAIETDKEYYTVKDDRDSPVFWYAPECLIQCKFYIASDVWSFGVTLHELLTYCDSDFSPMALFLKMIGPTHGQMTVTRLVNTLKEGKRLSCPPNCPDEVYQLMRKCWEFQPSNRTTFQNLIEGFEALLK

solubility kinetic [1]: > 85 µg/mL | fraction unbound [2]: 0.525 | Cmax [3]: 310 ng/mL | Tmax [4]: 2.2 h | AUC(0-inf) [5]: 739 ng·h/mL | AUC(0-inf) [6]: 1680 ng·h/mL | half-life [7]: 1.6 h | half-life [8]: 3.9 h | Cmax [9]: 1140 ng/mL | Cmax [10]: 1810 ng/mL | Tmax [11]: 1.5 h | AUC(0-inf) [12]: 4100 ng·h/mL | AUC(0-inf) [13]: 13900 ng·h/mL | clearance [14]: 4.17 mL/min/kg | Vd [15]: 1.7 L/kg | half-life [16]: 7.5 h | half-life [17]: 5.2 h | bioavailability [18]: 67% | remaining at 1 h [19]: 65% | remaining at 1 h [20]: 45% | remaining at 1 h [21]: 87% | half-life [22]: 3.33 h | half-life [23]: 3.33 h | half-life [24]: 3.33 h | permeability [25]: 3.5 ×10⁻⁶ cm/s | Therm solubility [26]: 243 µg/mL | Therm solubility [27]: 40 µg/mL | fraction unbound [28]: 0.711 | fraction unbound [29]: 0.682 | IC50 (Cytochrome P450 1A2): > 70 µM | IC50 (Cytochrome P450 2C9): > 70 µM | IC50 (Cytochrome P450 2D6): > 70 µM | IC50 (Cytochrome P450 2C19): > 70 µM | IC50 (Jak1 protein): 0.029 µM
Structure (SMILES): O=C(Nc1nc2cccc(-c3ccc(CN4CCS(=O)(=O)CC4)cc3)n2n1)C1CC1 [FILGOTINIB]
inhibition (Rattus norvegicus [30]): Dose-dependent effect | inhibition (Rattus norvegicus [31]): Active | inhibition (Rattus norvegicus [32]): Active
